Measured values from patent US20230183303A1, “Therapeutic Potential of Peptides from the "Netrin-Like" Domain of the FRZB Protein” (Université de Lorraine, priority 2020, published 2023).

Key:
[1] = tested on: 7×TCF/LEF response elements (Super 8×TOPFlash reporter); test: Promoter activation assay, Super 8×TOPFlash luciferase reporter in ATDC5 cells stimulated with Wnt3a; format: cell-based, mouse; conditions: peptide at 300 ng/ml; 10 or 100 ng/mL recombinant Wnt3a; 24 h
Protocol: Results were normalized by-cotransfecting each of the above plasmid with the tyrosine kinase-renilla luciferase plasmid (Promega). Transfections were carried out using the Dharmafect kb transfection reagent (Fisher Scientific). Briefly, reporter plasmids and transfection reagent were diluted in serum-free medium, and then the diluted Dharmafect kb was added to the plasmids for an incubation time of 10 minutes at room temperature. During that time, cells were rinsed with PBS and were placed in fresh maintenance medium. When incubation was over, the mixture of transfection reagent-plasmids was dispensed in each well. Stimulations (with Wnt3a and/or PEP16 and/or PEP16bis) were carried out the next day.

[2] = tested on: MMP13; test: MMP13 enzymatic activity in culture supernatants of mouse articular chondrocytes; format: cell-based; conditions: PEP16 at 300 ng/mL with IL1β at 100 pg/mL; 24 h
Protocol: (§1) Mouse articular chondrocyte (MACs) were isolated from femoral heads by enzymatic digestion of whole femoral head caps. Samples were washed three times in 1% AB/phosphate buffered saline (PBS) and incubated with 2 mg/ml pronase (Roche)/DMEM-F12 at 37° C. for 1 h at slow rotation 100 rpm followed by a 3 h incubation with 1.5 mg/ml collagenase B (Roche)/DMEM-F12 at 37° C. Cells were seeded at 1×10^6 cells/[…], and cultured for 7 to 14 days in growth medium DMEM-F12, containing 1% AB (Gibco), 10% FBS (Gibco) and 5% L-glutamine (Thermoscientific). Passage 1 cells were utilized for the experiments. The culture supernatants were then harvested in order to perform MMP13 enzymatic activity assay. The evaluation of the expression of genes of interest included articular chondrocyte markers (aggrecan, type 2 collagen (col2a1)), YAP/TAZ target genes (ankrd) and pro-catabolic enzyme involved in the pathophysiology of OA (mmp3).
The MMP13 enzymatic activity was assessed using the MMP13 fluorogenic substrate (Merck Millipore). Briefly, culture supernatants harvested at the end of the different experiments were mixed with 1.5 mM of 4-aminophenylmercuric acetate, and incubated for 1 h at 37° C., in order to turn every pro-MMPs into active MMPs. […] Fluorescence was evaluated using the following parameters, excitation 325 nm and emission 393 nm, on the Varioskan Flash device (Thermo Fisher Scientific). […]

[3] = tested on: mouse articular chondrocytes; test: qRT-PCR relative expression of genes of interest in mouse articular chondrocytes; format: cell-based
Protocol: as §1
(§2) Total RNA was isolated using the Nucleospin RNA II kit (Macherey-Nagel) and reverse-transcribed using the MMLV reverse transcriptase (Thermo Fisher Scientific) following the manufacturers' instructions. The iTaq SYBR green qPCR master mix (BioRad) was used to assess the mRNA expression of target genes of interest. Primer sequences can be provided upon request. The following PCR conditions were used: 1 minute at 95° C., 40 cycles of 15 sec of denaturation at 95° C., followed by 1 minute of annealing-elongation at 60° C. Melting curve analysis was performed to determine the amplification of the specific product. Results were expressed using the comparative threshold method and were normalized to housekeeping gene PPIA (Peptidylprolyl Isomerase A) mRNA level for ATDC5 cells and MACs, or normalized to housekeeping gene S29 (ribosomal protein S29) mRNA level for MC3T3-E1 cells. The Via7 real-time PCR system (Thermo Fisher Scientific) was used for qRT-PCR measurements.

[4] = tested on: MC3T3-E1 cells; test: qRT-PCR relative expression of genes of interest in MC3T3-E1 cells (osteogenic differentiation); format: cell-based, mouse
From the text: (§3) Each time point was processed in three technical replicates. The medium was changed every two days.
as §2
Briefly, MC3T3-E1 cells were differentiated during 14 days as mentioned previously. […] In the same experiment, we also used MC3T3-E1 cells stably overexpressing the NTN domain. Treated cells and NTN overexpressing cells were compared to control cells (CTL).
RNA was isolated and qPCR was performed for ANKRD (YAP/TAZ target gene, indicator of the pathway activity) (FIG. 21).

[5] = tested on: Wnt/β-catenin pathway; conditions: PEP16 at 300 or 1000 ng/mL; day 7, 14, 21; during osteogenesis
Protocol: Cells were maintained in a humidified atmosphere of 5% CO2 at 37° C.

[6] = tested on: MC3T3-E1 cells; test: Quantification of mineralization (Alizarin Red) in MC3T3-E1 cells; format: cell-based, mouse; conditions: PEP16 at 100 or 300 ng/mL; day 21; absorbance 405 nm
Protocol: as §3
Cells were washed with PBS and fixed with 95% ice-cold ethanol for 30 min at 4° C. for staining. After washing with distilled water, cells were stained with Alizarin Red staining (1% Alizarin Red S (Sigma)), washed three times with distilled water to remove unbound staining and air-dried. Quantification of the staining was performed by dissolving the mineral content in 800 μl of 10% acetic acid for 30 minutes. Then, the wells were scraped, the content of each well was harvested in a separate tube and vortexed for 30 seconds. Each tube was heated at 85° C. for 10 minutes, then put on ice for 5 minutes. Finally, tubes were centriguated at 13000 rpm for 15 minutes, the liquid phase was harvested and mixed with 100 μl of 10% ammonium hydroxide. Absorbance was measured at 405 nm with a spectrophotometer (Varioskan Flash, Thermo Fisher Scientific).
The mineralization level was evaluated by a biochemical assay as previously described after 21 days of differentiation culture. Results are representative of 3 experiments.

[7] = PEP16 at 300 ng/mL and wnt3a at 100 ng/mL, 24 and 48 h
[8] = PEP16 at 100 or 300 ng/mL, day 7, 14, 21, normalized with S29

**Q.** How did the “activity of the canonical Wnt pathway in the Super TOPFlash luciferase reporter system (Firefly/renilla ratio)” value [1] turn out when “DRLGKKVKRWDMKLRH (PEP16) [peptide derived from the netrin-like domain of the FRZB protein]” was run?
**A.** The value was “significantly reduce the activity”.

**Q.** What about the “IL1β-induced MMP13 enzymatic activity in culture supernatant” value [2] of the same sequence?
**A.** The value was “significantly reduced”.

**Q.** What about the “expression of Ankrd, a target gene of the Hippo/YAP/TAZ pathway” value ([3]; 300 ng/mL, 12 h of stimulation) of the same sequence?
**A.** Its value is “capable of reducing the expression”.

**Q.** And the “expression of MMP3 induced by Wnt3a” value ([3]; 300 ng/mL, wnt3a at 100, 50, 30 ng/mL, 24 h of stimulation)?
**A.** The value was “counteract the inductive effects of Wnt3a”.

**Q.** What about the “relative expression level of aggrecan (decrease induced by Wnt3a)” value [3, 7] of the same sequence?
**A.** Its value is “had a tendancy to counteract”.

**Q.** What about the “relative expression level of col2a1 (type 2 collagen; decrease induced by Wnt3a)” value [3, 7] of the same sequence?
**A.** The value was “had a tendancy to counteract”.

**Q.** What about the “increase of NGF induced by Wnt3a” value ([3]; PEP16 with Wnt3a, data not shown) of the same sequence?
**A.** The value was “had a tendancy to counteract”.

**Q.** What about the “expression of ANKRD (YAP/TAZ target gene)” value ([4]; PEP16 at 300 ng/ml or cells stably overexpressing the NTN domain, D1 and D14, vs control cells) of the same sequence?
**A.** Its value is “managed to do so”.

**Q.** What about the “relative expression level of osteocalcin” value [4, 8] of the same sequence?
**A.** Its value is “favoured the induction of the expression”.

**Q.** And the “relative expression level of osterix” value [4, 8]?
**A.** Its value is “favoured the induction of the expression”.

**Q.** What about the Wnt/β-catenin pathway activation [5] of the same sequence?
**A.** The Wnt/β-catenin pathway activation was “reduced in the activation”.

**Q.** What about the “mineralization quantification (mineral content in the extracellular matrix)” value [6] of the same sequence?
**A.** The value was “significantly increased the accumulation of mineral content”.
